Patent US7691624B2, “Cancer cell detecting devices” (Academia Sinica, priority 2003, dated 2010)

Assays:
primary fibroblast = test: Fluorescence of stained cells in eppendorf under LED, recorded by camera; assay type: cell-based; conditions: Normal cells (F) primary fibroblast
Experimental: (§1) Human lung CL1-0 cancer cells or MRC-5 normal cells were incubated with 0.5 μM of Compound 2 and acridine orange (AO). After incubation in standard culture medium for 1 hour, the non-fixed cells were removed by washing the culture three times with phosphate buffered saline (PBS). The fixed cells were collected in an eppendorf by trypsinization. The eppendorf was centrifuged and then illuminated by an light emitting diode (LED) emitting excitation light with a center wavelength at 470 nm. A conventional digital camera was used to record the fluorescence. Table 1 summarizes the numbers of cells required to distinguish cancer cells from normal cells based on fluorescence emission of Compound 2 and AO recorded by a camera under different experimental conditions. Specifically, Compound 2 and AO were incubated with four different cells in eppendorf, i.e., MRC-5 normal cells, primary fibroblast, CL1-0 cancer cells, and HeLa cancer cells.

HeLa cancer cells = test: as above; assay type: cell-based; conditions: Cancer cells (H) HeLa
Experimental: as §1

DNA quadruplex [1] = test: Fluorescence analysis of compound/DNA complex; assay type: binding
Experimental: (§2) Compound 2 was mixed with eleven DNAs and subjected to fluorescence analysis at λex≈430 nm, using a Hitachi F4010 spectrofluorimeter with a 2 nm bandwidth in a 1-cm cell. Fluorescence analysis was also carried out for compound 4 in the presence of Hum24. […] Further, the fluorescence peaks for a complex of compound 2 and a DNA duplex and a complex of compound 2 and a DNA quadruplex were at ˜550 nm and ˜575 nm, respectively.

DNA duplex [2] = test: Fluorescence analysis of compound/DNA complex; assay type: binding; conditions: complex with a DNA duplex, λex≈430 nm
Experimental: as §2

DNA quadruplexes = test: CD analysis of DNA quadruplexes and their complexes; assay type: binding; conditions: eight DNA quadruplexes
Excerpt: (§3) Eight DNA quadruplexes and their complexes with compound 2 were subjected to CD analysis. CD spectra were averaged 10 scans on a Jasco J-715 spectropolarimeter with a 2 nm bandwidth. The scan speed was 50 nm/min and the step resolution was 0.2 nm.

NIH3T3 normal cells = test: Cancer cell diagnosis in a tube; assay type: cell-based; conditions: NIH3T3 normal cells alone
Excerpt: (§4) NIH3T3 normal cells and a mixture of NIH3T3 normal cells and CL1-0 cancer cells with a cell ratio of 100:1 were respectively stained with Compound 2 and allowed to flow through a tube. The fluorescence emission upon excitation was monitored. […] In other words, this method can be used for early detection of cancer cells when cancer cells have a low concentration in a sample. For example, this method can be used to identify patients at risk of developing cancer, who should consider further examination by a physician.

[3] = system: mixture of NIH3T3 normal cells and CL1-0 cancer cells with a cell ratio of 100:1; test: Cancer cell diagnosis in a tube; assay type: cell-based; conditions: NIH3T3:CL1-0 100:1
Excerpt: as §4

[4] = Absorption analysis of the free compound; assay type: physicochemical; conditions: compound alone, before adding DNA
Experimental: (§5) Each oligonucleotide described above was mixed with a solution of 10 mM Tris-HCl (pH 7.5) and 150 mM NaCl and was denatured at 90° C. for 2 min. The mixture was then cooled slowly to room temperature and stored at 4° C. for more than 2 days before use. A test compound was then added to this solution to form a compound/DNA complex. The resultant complex was subjected to absorption analysis using a Hitachi U3200 UV-visible spectrophotometer.
(§6) The absorption spectra were taken for compound 2 and its complex with each oligonucleotide. […] In addition, the molar absorption coefficient decreased by ˜15% in the presence of a DNA duplex and ˜35% in the presence of a DNA quadruplex. 10 These spectra changes indicate that compound 2 binds to duplexes and quadruplexes.

[5] = system: tested cancer cells (CL1-1, H1299, hTERT-BJ, Ca9-22, HeLa, KJ-1); test: Cancer cell diagnosis by wide-field fluorescence microscopy; assay type: cell-based, human; conditions: each type of tested cancer cells; 0.1 μM, 3-6 hours
Experimental: (§7) A wide-field fluorescence microscopy was custom made for diagnosing cancer cells. The microscopy consists of an Ar^+ laser (Coherent Inc. Santa Clara, Calif.) as the light source, a sensitive cooled charged-coupled device (CCD) camera (DV465-UV, Andor Technology, South Windsor, Conn.) for imaging, and two avalanche photodiodes (APDs) for transient photoluminescence measurement. Excitation and imaging were conducted by an oil immersion microscope objective with a numerical aperture of 1.3. A dichroism mirror (Omega) was used to direct the fluorescence into the CCD camera. A holographic notch filter (Oriel) was used to block the backscattered laser light. Images of 250×250 pixels were recorded at a high speed. The imaged area was 50×50 μm^2 and the spatial resolution was about 2 pixels.
(§8) The following cells were tested: CL1-1 human lung cancer cells, H1299 lung cancer cells, hTERT-BJ lung cancer cells, Ca9-22 oral cancer cells, HeLa cervical cancer cells, KJ-1 nasopharyngeal cancer cells, HaCaT keratinocyte cells, Detroit-551 skin normal cells, IMR-90 lung normal cells, and BJ-1 lung fibroblast cells. Specifically, cells were incubated with 0.1 μM of compound 2 in a culture medium for 3-6 hours. The non-fixed cells were washed three times with phosphate-buffered saline and then studied under the wide-field fluorescence microscope.

DNA = test: Fluorescence analysis in the presence of a DNA; assay type: binding; conditions: λex≈430 nm; compound 2 with eleven DNAs, compound 4 with Hum24
Experimental: as §2

CL1-0 cancer cells = test: Fluorescence of stained cells in eppendorf under LED, recorded by camera; assay type: cell-based, human; conditions: for Numbers of cells required to distinguish cancer cells and normal cells: Cancer cells (C) CL1-0
Experimental: as §1

MRC-5 normal cells = test: as above; assay type: cell-based, human; conditions: for Numbers of cells required to distinguish cancer cells and normal cells: Normal cells (M) MRC-5
Experimental: as §1

[6] = system: tested normal cells (HaCaT, Detroit-551, IMR-90, BJ-1); test: Cancer cell diagnosis by wide-field fluorescence microscopy; assay type: cell-based; conditions: each type of tested normal cells; 0.1 μM, 3-6 hours
Experimental: as §7, §8

DNA quadruplex [7] = test: Absorption analysis of compound/DNA complex; assay type: binding; conditions: in the presence of a DNA quadruplex
Experimental: as §5, §6

DNA duplex [8] = test: Absorption analysis of compound/DNA complex; assay type: binding; conditions: in the presence of a DNA duplex
Experimental: as §5, §6

Hum24 quadruplex = test: Temperature-dependent CD analysis; assay type: binding, human
Excerpt: as §3
Further, Hum24 and its complexes with compounds 2, 4, 6, and 8 were subjected to temperature-dependent CD analysis.

[9] = 10 mM Tris-HCl pH 7.5, 150 mM NaCl

Compound: C[n+]1ccc(C=Cc2ccc3[nH]c4ccc(C=Cc5cc[n+](C)cc5)cc4c3c2)cc1.[I-].[I-] [Compound 2, 3,6-bis-(2-(1-methylpyridinium-4-yl)-vinyl)-9H-carbazole diiodide]
- Numbers of cells required to distinguish cancer cells and normal cells (primary fibroblast; 0.05 μM/1 hr): 20,000 (F)
- Numbers of cells required to distinguish cancer cells and normal cells (primary fibroblast; 0.1 μM/1 hr): 12,500 (F)
- Numbers of cells required to distinguish cancer cells and normal cells (HeLa cancer cells; 0.05 μM/1 hr): 2,000 (H)
- Numbers of cells required to distinguish cancer cells and normal cells (HeLa cancer cells; 0.1 μM/1 hr): 2,000 (H)
- melting point: > 300 °C
- binding preference (DNA quadruplex [1]; DNA quadruplex versus DNA duplex, fluorescence analysis): higher binding preference to a DNA quadruplex than to a DNA duplex
- fluorescence peak of complex (DNA quadruplex [1]; complex with a DNA quadruplex, λex≈430 nm): ~575 nm
- fluorescence peak of complex (DNA duplex [2]): ~550 nm
- changes in the CD spectra of DNA quadruplexes before and after compound binding (DNA quadruplexes): No appreciable changes
- fluorescence observed from stained cells flowing through a tube (NIH3T3 normal cells): only weak fluorescence
- fluorescence observed from stained cells flowing through a tube [3]: bright fluorescence
- absorption peak [4]: ~435 nm
- percentage of cells exhibiting bright fluorescence in the nucleus [5]: more than 70%
- increase of fluorescence intensity in the presence of a DNA (DNA): two orders of magnitude
- fluorescence emission in eppendorf (CL1-0 cancer cells; 0.5 μM, 1 hour, LED 470 nm): fluorescence emission was clearly observed
- Numbers of cells required to distinguish cancer cells and normal cells (CL1-0 cancer cells; 0.1 μM/30 min): 2,000 (C)
- Numbers of cells required to distinguish cancer cells and normal cells (CL1-0 cancer cells; 0.5 μM/1 hr): 1,000 (C)
- fluorescence emission in eppendorf (MRC-5 normal cells; 0.5 μM, 1 hour, LED 470 nm): no appreciable fluorescence emission was observed
- Numbers of cells required to distinguish cancer cells and normal cells (MRC-5 normal cells; 0.1 μM/30 min): 10,000 (M)
- Numbers of cells required to distinguish cancer cells and normal cells (MRC-5 normal cells; 0.5 μM/1 hr): 8,000 (M)
- percentage of cells exhibiting bright fluorescence in the nucleus [6]: less than 20%
- decrease of molar absorption coefficient (DNA quadruplex [7]): ~35%
- absorption peak (DNA quadruplex [7]; [9]): ~460 nm
- decrease of molar absorption coefficient (DNA duplex [8]): ~15%
- absorption peak (DNA duplex [8]; [9]): ~450 nm
- melting temperature of Hum24 quadruplex in the presence of compound (Hum24 quadruplex): increased
